According to patent publication US4550179A, “N-(1-Allyl-2-pyrrolidinyl-methyl) 2-methoxy-4-amino-5-methylsulfamoyl benzamide” (Societe d'Etudes Scientifiques et Industrielles de l'Ile-de …, priority 1980, dated 1985):

How the values were obtained:
rat = assay: stereotypic movements of the rat caused by dopaminergic agonists (apomorphine or amphetamine); format: in vivo
serotonin [1] = assay: gastric ulcer producing effect of serotonin in the rat; format: in vivo; conditions: sc, subcutaneously, read-out: effective dose 50 (protection against gastric ulcer producing effect of serotonin)
migraine [2] = assay: comparative study with Pizotifene in migraine; format: in vivo; conditions: 17 migraine patients, 150 mg per day orally
Protocol: (2) A comparative study with Pizotifene, an anti-histamine and antiserotonin compound which is also used in the basic treatment for migraine.
The study covered 17 patients suffering true attacks of migraine of regular frequency, which thus enabled the effectiveness of the treatment to be assessed from the number and intensity of attacks during a period of one month.
The benzamide according to the invention was applied orally in a dose of 150 mg per day, in three times. The Pizotifene was also administered orally, with the progressive dosage recommended for the product (0.73 mg×1 for 3 days-0.73 mg×2 for 3 days-0.73 mg×3 for 24 days).
The patients were distributed at random between the treatments.

migraine [3] = assay: open investigation in migraine out-patients; format: in vivo; conditions: 150 mg per day orally in 3 doses
Protocol: (3) An open investigation covering 80 patients, who were followed in out-patient treatment with 150 mg of benzamide per day, given orally in 3 doses: […]

mouse [4] = assay: analgesic action, pain caused by mechanical, chemical or heat stimulus; format: in vivo; conditions: single dose
Text: The analgesic action of the benzamide, in a single dose, is weak in respect of the pain caused in a mouse by a mechanical, chemical or heat stimulus.

mouse [5] = assay: spontaneous motility of mouse, Activograph method; format: in vivo; conditions: read-out: inhibiting effect on spontaneous motility at maximum dose administered
Text: (§1) Spontaneous motility of mouse:
(§2) inhibiting effect observed at
(§3) maximum dose administered
(§4) Adminis- WINTER & Activograph

arterial pressure = arterial pressure in dog anaesthetised with chloralose; format: in vivo
Text: (§5) The effects of the benzamide on the cardiovascular system were studied in a dog anaesthetised with chloralose, with the following results:
Variations in arterial pressure
(mg/kg/I.V.) relative to initial pressure

migraine [6] = assay: comparative crossed double blind study versus oxetorone in migraine; format: in vivo; conditions: 63 migraine patients, 150 mg per day vs oxetorone 120 mg, 30 days
Text: (1) A comparative study, by a crossed double blind method, the reference product being oxetorone, which is medically known, applied to migraine. The study covered 63 migraine patients, the two treatments being applied for 30 days with an adequate interruption between sequences.

nicotine = assay: hypertensive response to nicotine (orthosympathetic component), anaesthetised dog; format: in vivo; conditions: for % reduction of orthosympathetic component (R): nicotine
Text: (§6) The effects of the benzamide on the cardiovascular system were studied in a dog anaesthetised with chloralose, with the following results: […]

[7] = acute toxicity (lethal dose 50); conditions: in vivo, male mouse
isolated uterus = assay: serotonin-induced contraction of isolated uterus; conditions: isolated uterus of a rat, contraction produced by serotonin
Protocol: inhibited contraction of the isolated uterus of a rat, produced by serotonin. The contraction inhibiting dose 50 is of the order of 0.2 mg/l.

serotonin [8] = assay: hypertensive response to serotonin, anaesthetised dog treated with chlorisondamine; format: in vivo
Text: as §5
% inhibition of hypertension after […]

carotid arteries = assay: hypertensive response to blocking of carotid arteries, anaesthetised dog; format: in vivo; conditions: for % reduction relative to control hypertension (R): blocking of carotid arteries for 30 seconds
Text: as §6

isolated ileum = assay: anticholinergic action in vitro on isolated ileum; conditions: isolated ileum of guinea pig
cerebral arteries = assay: cerebral haemodynamics of migraine patients (pulsatility of cerebral arteries); format: in vivo
Protocol: The first clinical pharmacological investigation consisted of exploring the cerebral haemodynamics of migraine patients by a non-invasive method, through recording the pulsatility of the cerebral arteries. […] Graphs were thus plotted after the benzamide according to the invention had been absorbed by migraine patients.
This is maintained under treatment with repeated doses (150 mg/day) given orally for 3 weeks.

mouse [9] = assay: spontaneous motility of mouse, WINTER & FLATAKER method; format: in vivo
Text: The researchers were looking for the effects of the benzamide on the central nervous system and particularly for any neuroleptic action.
as §1, §2, §3, §4

[10] = test system: hypotensive response to acetylcholine or to excitation of the vagus nerve; assay: hypotensive response to acetylcholine or excitation of the vagus nerve, anaesthetised dog; format: in vivo
Text: as §6

mice = assay: duration of barbituric (pentobarbital) hypnosis; format: in vivo, mouse
Protocol: Adminis- Dose Time of hypnosis, mice treated
Product tration mg/kg Time of hypnosis, control mice
N.B. The barbiturate used is pentobarbital in a dose of 60 mg/kg given

[11] = BATCH 1, 1 mg/kg I.V., serotonin 37.5 μg/kg I.V.
[12] = BATCH 1, 5 mg/kg I.V., serotonin 25 μg/kg I.V.
[13] = BATCH 2, 1 mg/kg I.V., serotonin 25 μg/kg I.V.
[14] = BATCH 2, 5 mg/kg I.V., serotonin 25 μg/kg I.V.

SMILES: C=CCN1CCCC1CNC(=O)c1cc(S(=O)(=O)NC)c(N)cc1OC (stereo not drawn) [Benzamide according to the invention, N-(1-allyl-2-pyrrolidinyl-methyl)2-methoxy-4-amino-5-methylsulfamoyl benzamide]
- counteraction of stereotypic movements (rat): does not counteract the stereotypic movements of the rat
- ED50 (serotonin [1]): ~3 mg/kg
- effectiveness versus Pizotifene (migraine [2]): more effective than the second reference compound
- remission in particularly severe cases of "accompanied" migraines (migraine [3]): the remission transformed the social life of the patient
- General tolerance of the treatment (migraine [3]; 80 patients): very satisfactory
- success (migraine [3]; 80 patients): 79%
- analgesic action (mouse [4]): weak
- inhibition at 80 mg/kg (mouse [5]; ip, I.P., 80 mg/kg): 22%
- inhibition at 300 mg/kg (mouse [5]; po, P.O., 300 mg/kg): 25%
- Variations in arterial pressure relative to initial pressure (arterial pressure; cumulative dose 0.5 mg/kg I.V.): -21%
- Variations in arterial pressure relative to initial pressure (arterial pressure; cumulative dose 1 mg/kg I.V.): -32%
- Variations in arterial pressure relative to initial pressure (arterial pressure; cumulative dose 2 mg/kg I.V.): -36%
- Variations in arterial pressure relative to initial pressure (arterial pressure; cumulative dose 4 mg/kg I.V.): -48%
- Variations in arterial pressure relative to initial pressure (arterial pressure; cumulative dose 8 mg/kg I.V.): -54%
- Variations in arterial pressure relative to initial pressure (arterial pressure; cumulative dose 16 mg/kg I.V.): -59%
- Variations in arterial pressure relative to initial pressure (arterial pressure; cumulative dose 32 mg/kg I.V.): -58%
- arterial pressure (arterial pressure; dog anaesthetised with chloralose): drop in arterial pressure proportional to the dose administered
- therapeutic effectiveness and tolerance versus oxetorone (migraine [6]): statistically superior to oxetorone
- hypertensive responses caused by small doses of nicotine (nicotine; anaesthetised dog): reduces the hypertensive responses
- % reduction of orthosympathetic component (R) (nicotine; cumulative dose 0.5 mg/kg I.V.): 0%
- % reduction of orthosympathetic component (R) (nicotine; cumulative dose 1 mg/kg I.V.): 0%
- % reduction of orthosympathetic component (R) (nicotine; cumulative dose 2 mg/kg I.V.): 0%
- % reduction of orthosympathetic component (R) (nicotine; cumulative dose 4 mg/kg I.V.): 0%
- % reduction of orthosympathetic component (R) (nicotine; cumulative dose 8 mg/kg I.V.): 0%
- % reduction of orthosympathetic component (R) (nicotine; cumulative dose 16 mg/kg I.V.): 49%
- % reduction of orthosympathetic component (R) (nicotine; cumulative dose 32 mg/kg I.V.): 79%
- LD50 ([7]; ip, intraperitoneal (basis)): 184 mg/kg
- LD50 ([7]; po, per os (basis)): 3600 mg/kg
- LD50 ([7]; sc, subcutaneous (basis)): 204 mg/kg
- LD50 ([7]; intravenous (basis)): 44 mg/kg
- contraction inhibiting dose 50 (isolated uterus): ~0.2 mg/L
- % inhibition of hypertension after 3 mn (serotonin [8]; [11]): 22%
- % inhibition of hypertension after 30 mn (serotonin [8]; [11]): 8%
- % inhibition of hypertension after 3 mn (serotonin [8]; [12]): 62%
- % inhibition of hypertension after 30 mn (serotonin [8]; [12]): 63%
- % inhibition of hypertension after 1 h (serotonin [8]; [12]): 51%
- % inhibition of hypertension after 1 h 30 (serotonin [8]; [12]): 51%
- % inhibition of hypertension after 2 h (serotonin [8]; [12]): 40%
- % inhibition of hypertension after 3 mn (serotonin [8]; [13]): 36%
- % inhibition of hypertension after 30 mn (serotonin [8]; [13]): 11%
- % inhibition of hypertension after 1 h (serotonin [8]; [13]): 0%
- % inhibition of hypertension after 3 mn (serotonin [8]; [14]): 78%
- % inhibition of hypertension after 30 mn (serotonin [8]; [14]): 65%
- % inhibition of hypertension after 1 h (serotonin [8]; [14]): 48%
- % inhibition of hypertension after 1 h 30 (serotonin [8]; [14]): 43%
- % inhibition of hypertension after 2 h (serotonin [8]; [14]): 33%
- % inhibition of hypertension after 3 h (serotonin [8]; BATCH 2, 5 mg/kg I.V., serotonin 25 μg/kg I.V., 3 h): 33%
- hypertensive response to serotonin (serotonin [8]; anaesthetised dog, chlorisondamine): reduces the hypertensive response to serotonin
- hypertensive responses caused by blocking the carotid arteries (carotid arteries; anaesthetised dog): reduces the hypertensive responses
- % reduction relative to control hypertension (R) (carotid arteries; cumulative dose 0.5 mg/kg I.V.): 0%
- % reduction relative to control hypertension (R) (carotid arteries; cumulative dose 1 mg/kg I.V.): 30%
- % reduction relative to control hypertension (R) (carotid arteries; cumulative dose 2 mg/kg I.V.): 43%
- % reduction relative to control hypertension (R) (carotid arteries; cumulative dose 4 mg/kg I.V.): 48%
- % reduction relative to control hypertension (R) (carotid arteries; cumulative dose 8 mg/kg I.V.): 86%
- % reduction relative to control hypertension (R) (carotid arteries; cumulative dose 16 mg/kg I.V.): 90%
- % reduction relative to control hypertension (R) (carotid arteries; cumulative dose 32 mg/kg I.V.): 100%
- anticholinergic action (isolated ileum): no anticholinergic action
- maintenance of graph normalisation (cerebral arteries; repeated doses 150 mg/day orally for 3 weeks): maintained
- graph of cerebral artery pulsatility (cerebral arteries; single 100 mg intramuscular injection): the graph moves towards normalisation in 2 hours
- inhibition at 80 mg/kg (mouse [9]; Mus musculus, ip, I.P., 80 mg/kg, WINTER & FLATAKER method, read-out: inhibiting effect on spontaneous motility at maximum dose administered): 26%
- inhibition at 300 mg/kg (mouse [9]; Mus musculus, po, P.O., 300 mg/kg, WINTER & FLATAKER method, read-out: inhibiting effect on spontaneous motility at maximum dose administered): 20%
- reduction of spontaneous motility (mouse [9]; mouse, even in high doses): only very slightly reduces the spontaneous motility of the mouse
- depressive action (central nervous system) (mouse [9]; mouse, in vivo): very little depressive action
- hypotensive response to acetylcholine or to excitation of the vagus nerve [10]: does not change the hypotensive response
- Time of hypnosis, mice treated / Time of hypnosis, control mice (mice; I.P., 80 mg/kg, pentobarbital 60 mg/kg intraperitoneally): 1.6
- extension of the duration of barbituric hypnosis (mice; mouse, in vivo): does not extend the duration of barbituric hypnosis
